From patent publication US20230278972A1, “SUBSTITUTED HALOALKYL SULFONANILIDE HERBICIDES” (FMC Corporation, priority 2020, published 2023)

Legend:
Type in all cases: in vivo
[1] = test system: wheat (Triticum aestivum); test: Test A postemergence, wheat; settings: Postemergence, 0 to 100 scale (0 no effect, 100 complete control); for Plant response rating, Wheat: 125 g ai/ha; for Wheat plant response rating: 500 g ai/ha, visual injury vs untreated controls after approx. 10 days
Method in brief: (§1)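 Test chemicals, formulated in a non-phytotoxic solvent mixture with surfactant, were sprayed postemergence on plants 2 to 10 cm tall at the one- to two-leaf stage. Preemergence treatment was a directed soil spray onto freshly seeded pots. Both used a loam soil and sand blend.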

[2] = test system: barnyardgrass (Echinochloa crus-galli); test: Test A preemergence, barnyardgrass; settings: Preemergence; for Barnyardgrass plant response rating: visual injury on 0 to 100 scale (0 no effect, 100 complete control), approximately 10 days; for Plant response rating, Barnyardgrass: 0 to 100 scale (0 no effect, 100 complete control)
Method in brief: (§2)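 Whole-plant herbicidal screen in pots of loam blended with sand. Sprays used a surfactant-containing, non-phytotoxic solvent vehicle. Timing was preemergence soil-directed at planting or postemergence at the one- to two-leaf stage (2–10 cm).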

[3] = test system: galium (catchweed bedstraw, Galium aparine); test: Test A postemergence, galium; settings: Postemergence, 0 to 100 scale (0 no effect, 100 complete control); for Plant response rating, Galium: 125 g ai/ha; for Galium plant response rating: 500 g ai/ha, visual injury vs untreated controls after approx. 10 days
Method in brief: as §1

[4] = test system: kochia (Bassia scoparia); test: Test A preemergence, kochia; settings: Preemergence; for Kochia plant response rating: visual injury on 0 to 100 scale (0 no effect, 100 complete control), approximately 10 days; for Plant response rating, Kochia: 0 to 100 scale (0 no effect, 100 complete control)
Method in brief: as §2

[5] = test system: Ryegrass, Italian (Italian ryegrass, Lolium multiflorum); test: Test A postemergence, Ryegrass, Italian; settings: Postemergence, 0 to 100 scale (0 no effect, 100 complete control); for Plant response rating, Ryegrass, Italian: 125 g ai/ha; for Ryegrass, Italian plant response rating: 500 g ai/ha, visual injury vs untreated controls after approx. 10 days
Method in brief: as §2

[6] = test system: corn (Zea mays); test: Test A postemergence, corn; settings: Postemergence, 0 to 100 scale (0 no effect, 100 complete control); for Plant response rating, Corn: 125 g ai/ha; for Corn plant response rating: 500 g ai/ha, visual injury vs untreated controls after approx. 10 days
Method in brief: as §2

[7] = test system: Foxtail, Giant (giant foxtail, Setaria faberi); test: Test A postemergence, Foxtail, Giant; settings: Postemergence, 0 to 100 scale (0 no effect, 100 complete control); for Plant response rating, Foxtail, Giant: 125 g ai/ha; for Foxtail, Giant plant response rating: 500 g ai/ha, visual injury vs untreated controls after approx. 10 days
Method in brief: as §2

[8] = test system: Foxtail, Giant (giant foxtail, Setaria faberi); test: Test A preemergence, Foxtail, Giant; settings: Preemergence; for Foxtail, Giant plant response rating: visual injury on 0 to 100 scale (0 no effect, 100 complete control), approximately 10 days; for Plant response rating, Foxtail, Giant: 0 to 100 scale (0 no effect, 100 complete control)
Method in brief: as §2

[9] = test system: blackgrass (Alopecurus myosuroides); test: Test A postemergence, blackgrass; settings: Postemergence, 0 to 100 scale (0 no effect, 100 complete control); for Plant response rating, Blackgrass: 125 g ai/ha; for Blackgrass plant response rating: 500 g ai/ha, visual injury vs untreated controls after approx. 10 days
Method in brief: as §2

[10] = test system: Ryegrass, Italian (Italian ryegrass, Lolium multiflorum); test: Test A preemergence, Ryegrass, Italian; settings: Preemergence; for Ryegrass, Italian plant response rating: visual injury on 0 to 100 scale (0 no effect, 100 complete control), approximately 10 days; for Plant response rating, Ryegrass, Italian: 0 to 100 scale (0 no effect, 100 complete control)
Method in brief: as §2

[11] = test system: ragweed (common ragweed, Ambrosia artemisiifolia); test: Test A preemergence, ragweed; settings: Preemergence; for Ragweed plant response rating: visual injury on 0 to 100 scale (0 no effect, 100 complete control), approximately 10 days; for Plant response rating, Ragweed: 0 to 100 scale (0 no effect, 100 complete control)
Method in brief: as §2

[12] = test system: kochia (Bassia scoparia); test: Test A postemergence, kochia; settings: Postemergence, 0 to 100 scale (0 no effect, 100 complete control); for Plant response rating, Kochia: 125 g ai/ha; for Kochia plant response rating: 500 g ai/ha, visual injury vs untreated controls after approx. 10 days
Method in brief: as §2

[13] = test system: ragweed (common ragweed, Ambrosia artemisiifolia); test: Test A postemergence, ragweed; settings: Postemergence, 0 to 100 scale (0 no effect, 100 complete control); for Plant response rating, Ragweed: 125 g ai/ha; for Ragweed plant response rating: 500 g ai/ha, visual injury vs untreated controls after approx. 10 days
Method in brief: as §2

[14] = test system: pigweed (Amaranthus retroflexus); test: Test A preemergence, pigweed; settings: for Pigweed plant response rating: visual injury on 0 to 100 scale (0 no effect, 100 complete control), approximately 10 days; for Plant response rating, Pigweed: 0 to 100 scale (0 no effect, 100 complete control)
From the text: Seeds of plant species selected from barnyardgrass (Echinochloa crus-galli), kochia (Bassia scoparia), ragweed (common ragweed, Ambrosia artemisiifolia), Ryegrass, Italian (Italian ryegrass, Lolium multiflorum), Foxtail, Giant (giant foxtail, Setaria faberi), and pigweed (Amaranthus retroflexus) were planted into a blend of loam soil and sand and treated preemergence with a directed soil spray using test chemicals formulated in a non-phytotoxic solvent mixture which included a surfactant. At the same time, plants selected from these weed species and also wheat (Triticum aestivum), corn (Zea mays), blackgrass (Alopecurus myosuroides), and galium (catchweed bedstraw, Galium aparine) were planted in pots containing the same blend of loam soil and sand and treated with postemergence applications of test chemicals formulated in the same manner. Plants ranged in height from 2 to 10 cm and were in the one- to two-leaf stage for the postemergence treatment. […] A dash (-) response means no test result.

[15] = test system: pigweed (Amaranthus retroflexus); test: Test A postemergence, pigweed; settings: Postemergence, 0 to 100 scale (0 no effect, 100 complete control); for Plant response rating, Pigweed: 125 g ai/ha; for Pigweed plant response rating: 500 g ai/ha, visual injury vs untreated controls after approx. 10 days
Method in brief: as §2

[16] = 125 g ai/ha, visual injury, approx. 10 days

Cc1cc(C)c(-c2cc(Cl)nn(C)c2=O)cc1NS(=O)(=O)C(F)(F)F [Compound 72]
70: Wheat plant response rating [1] | Plant response rating, Galium ([3]; visual injury approx. 10 days) | Ragweed plant response rating [13]
40: Plant response rating, Kochia ([12]; visual injury approx. 10 days)
50: Corn plant response rating [6] | Plant response rating, Blackgrass ([9]; visual injury approx. 10 days)
0: Plant response rating, Corn ([6]; visual injury approx. 10 days)
20: Plant response rating, Ragweed ([13]; visual injury approx. 10 days)
100: Plant response rating, Barnyardgrass ([2]; 500 g ai/ha) | Kochia plant response rating ([4]; 125 g ai/ha) | Plant response rating, Kochia ([4]; 500 g ai/ha) | Foxtail, Giant plant response rating ([8]; 125 g ai/ha) | Plant response rating, Foxtail, Giant ([8]; 500 g ai/ha) | Plant response rating, Ryegrass, Italian ([10]; 500 g ai/ha) | Plant response rating, Pigweed ([14]; 500 g ai/ha)
60: Plant response rating, Wheat ([1]; visual injury approx. 10 days) | Plant response rating, Ryegrass, Italian ([5]; visual injury approx. 10 days) | Plant response rating, Pigweed ([15]; visual injury approx. 10 days)
90: Barnyardgrass plant response rating ([2]; 125 g ai/ha) | Galium plant response rating [3] | Plant response rating, Foxtail, Giant ([7]; visual injury approx. 10 days) | Foxtail, Giant plant response rating [7] | Ryegrass, Italian plant response rating ([10]; 125 g ai/ha) | Plant response rating, Ragweed ([11]; 500 g ai/ha) | Kochia plant response rating [12]
80: Ryegrass, Italian plant response rating [5] | Blackgrass plant response rating [9] | Ragweed plant response rating ([11]; 125 g ai/ha) | Pigweed plant response rating ([14]; 125 g ai/ha) | Pigweed plant response rating [15]

Cc1cc(Cl)c(NS(=O)(=O)C(F)(F)F)cc1C(=O)N1CCC(F)CC1 [Compound 201]
50: Plant response rating, Barnyardgrass [2, 16] | Corn plant response rating [6] | Plant response rating, Foxtail, Giant [7] | Plant response rating, Foxtail, Giant [8, 16]
70: Wheat plant response rating [1] | Ryegrass, Italian plant response rating [5] | Plant response rating, Ragweed [11, 16]
100: Plant response rating, Barnyardgrass ([2]; 500 g ai/ha) | Plant response rating, Kochia ([4]; 500 g ai/ha) | Plant response rating, Foxtail, Giant ([8]; 500 g ai/ha) | Plant response rating, Ragweed ([11]; 500 g ai/ha) | Plant response rating, Pigweed [14, 16] | Plant response rating, Pigweed ([14]; 500 g ai/ha) | Pigweed plant response rating [15]
60: Plant response rating, Wheat [1] | Plant response rating, Ryegrass, Italian [10, 16] | Plant response rating, Kochia [12] | Plant response rating, Pigweed [15]
90: Plant response rating, Galium [3] | Galium plant response rating [3] | Plant response rating, Kochia [4, 16] | Foxtail, Giant plant response rating [7] | Plant response rating, Ryegrass, Italian ([10]; 500 g ai/ha) | Kochia plant response rating [12] | Ragweed plant response rating [13]
30: Plant response rating, Ryegrass, Italian [5] | Blackgrass plant response rating [9]
20: Plant response rating, Corn [6] | Plant response rating, Blackgrass [9]
80: Plant response rating, Ragweed [13]

Cc1cc(C)c(N(S(=O)(=O)C(F)(F)F)S(=O)(=O)C(F)(F)F)cc1C1=NOC2(CCCCC2)C1 [Compound 198]
30: Plant response rating, Ryegrass, Italian [5] | Foxtail, Giant plant response rating [7]
60: Plant response rating, Kochia [4, 16] | Plant response rating, Ryegrass, Italian [10, 16] | Kochia plant response rating [12]
40: Wheat plant response rating [1] | Ryegrass, Italian plant response rating [5]
70: Plant response rating, Galium [3] | Plant response rating, Ragweed [11, 16] | Plant response rating, Pigweed [14, 16] | Pigweed plant response rating [15]
90: Galium plant response rating [3] | Plant response rating, Ryegrass, Italian ([10]; 500 g ai/ha)
20: Plant response rating, Wheat [1] | Plant response rating, Corn [6] | Corn plant response rating [6] | Plant response rating, Kochia [12] | Plant response rating, Ragweed [13]
80: Plant response rating, Barnyardgrass [2, 16] | Plant response rating, Kochia ([4]; 500 g ai/ha) | Plant response rating, Ragweed ([11]; 500 g ai/ha) | Ragweed plant response rating [13]
50: Plant response rating, Pigweed [15]
0: Plant response rating, Foxtail, Giant [7] | Blackgrass plant response rating [9]
10: Plant response rating, Blackgrass [9]
100: Plant response rating, Barnyardgrass ([2]; 500 g ai/ha) | Plant response rating, Foxtail, Giant [8, 16] | Plant response rating, Foxtail, Giant ([8]; 500 g ai/ha) | Plant response rating, Pigweed ([14]; 500 g ai/ha)

Cc1cc(C)c(N(S(C)(=O)=O)S(=O)(=O)C(F)(F)F)cc1-c1ccnn(C)c1=O [Compound 73]
90: Barnyardgrass plant response rating ([2]; 125 g ai/ha) | Plant response rating, Barnyardgrass ([2]; 500 g ai/ha) | Plant response rating, Galium ([3]; visual injury approx. 10 days) | Galium plant response rating [3] | Plant response rating, Kochia ([4]; 500 g ai/ha) | Ryegrass, Italian plant response rating [5] | Foxtail, Giant plant response rating [7] | Ryegrass, Italian plant response rating ([10]; 125 g ai/ha) | Pigweed plant response rating ([14]; 125 g ai/ha)
20: Plant response rating, Ragweed ([13]; visual injury approx. 10 days)
100: Foxtail, Giant plant response rating ([8]; 125 g ai/ha) | Plant response rating, Foxtail, Giant ([8]; 500 g ai/ha) | Plant response rating, Ryegrass, Italian ([10]; 500 g ai/ha) | Plant response rating, Pigweed ([14]; 500 g ai/ha)
70: Wheat plant response rating [1] | Corn plant response rating [6] | Kochia plant response rating [12]
10: Plant response rating, Corn ([6]; visual injury approx. 10 days) | Plant response rating, Kochia ([12]; visual injury approx. 10 days)
80: Kochia plant response rating ([4]; 125 g ai/ha) | Plant response rating, Foxtail, Giant ([7]; visual injury approx. 10 days) | Blackgrass plant response rating [9] | Ragweed plant response rating ([11]; 125 g ai/ha) | Plant response rating, Ragweed ([11]; 500 g ai/ha) | Ragweed plant response rating [13] | Pigweed plant response rating [15]
40: Plant response rating, Blackgrass ([9]; visual injury approx. 10 days)
60: Plant response rating, Wheat ([1]; visual injury approx. 10 days) | Plant response rating, Ryegrass, Italian ([5]; visual injury approx. 10 days) | Plant response rating, Pigweed ([15]; visual injury approx. 10 days)
